Data as given in publication PMC12656565, “In Vitro and Ultrastructural Evaluation of the Cytotoxic and Antileishmanial Activities of Thiosemicarbazone Compounds Against Promastigotes and Axenic Amastigotes of Leishmania infantum” (Tropical Medicine and Infectious Disease, 2025).

Tests used:
[1] = test system: L. infantum promastigote forms; test: Ultrastructural analysis (SEM/TEM) of promastigote forms; format: cell-based, Leishmania infantum; conditions: promastigotes, 1× and 2× IC50 (Amphotericin B 1× IC50), 72 h
Method: Ultrastructural analysis of promastigote and axenic amastigote forms of L. infantum was performed as described by Silva et al., with adaptations. Promastigote and amastigote forms were cultured in modified Schneider’s medium supplemented with 10% fetal bovine serum (FBS), in a BOD incubator at 26 °C and 32 °C, respectively, until reaching the stationary growth phase (72 h). After adjusting cell concentration to 1 × 10^7 cells/mL, samples were incubated with compounds LT-73, LT-75, and amphotericin B at concentrations corresponding to the IC50 and 2× IC50 previously determined, as well as a DMSO control (1% diluted), for 72 h. During incubation, daily microscopic monitoring of cell morphology was performed.
After this period, cells were washed with PBS (phosphate-buffered saline) and fixed in a solution containing 2.5% glutaraldehyde and 4% formaldehyde in 0.1 M phosphate buffer (pH 7.4) for 24 h at 4 °C. For transmission electron microscopy (TEM), cells were post-fixed in 1% osmium tetroxide (OsO4) for 2 h in 0.1 M phosphate buffer (pH 7.2), dehydrated in increasing acetone series (30%, 50%, 70%, 90%, and 3× 100%), embedded in EPON resin, and subjected to ultrathin sectioning using an ultramicrotome. Sections were contrasted with 2% uranyl acetate for 30 min and 2.5% lead citrate for 10 min, then analyzed using a Tecnai G2 Spirit TEM (FEI).
For scanning electron microscopy (SEM), after primary fixation, cells were adhered to coverslips pre-treated with poly-L-lysine for 30 min. Then, cells were washed three times with 0.1 M phosphate buffer (pH 7.2), post-fixed in 1% OsO4 for 2 h, dehydrated in increasing ethanol series (30%, 50%, 70%, 90%, and 3× 100%), subjected to critical point drying using an HCP-2 device (Hitachi (Tokyo, Japan)), and gold-coated (20 nm) using a JFC-1100 device ((JEOL Ltd., Tokyo, Japan)). […]
(§1) All images were acquired under standardized laboratory protocols. A minimum of 50 parasites per condition were analyzed by two blinded investigators and no visible precipitation or crystallization occurred during fixation.

[2] = test system: L. infantum axenic amastigotes; test: Ultrastructural analysis (SEM/TEM) of axenic amastigote forms; format: cell-based, Leishmania infantum; conditions: 1× and 2× IC50 (Amphotericin B 1× IC50), 72 h
Method: Differentiation of L. infantum promastigote forms into axenic amastigote forms was carried out according to the protocol by Oliveira et al., with adaptations. Stationary-phase promastigotes (72 h) were cultured in modified Schneider’s Drosophila medium supplemented with 10% fetal bovine serum (FBS) at 26 °C. Cells were collected by centrifugation (3000× g for 10 min at 4 °C), washed three times with PBS (150 mM NaCl, 20 mM phosphate buffer, pH 7.2), and adjusted to 1 × 10^6 cells/mL. Differentiation was induced in acidified Schneider’s medium (pH 5.5), supplemented with 2.5% FBS, incubated at 32 °C for seven days.
Axenic amastigotes were obtained from stationary-phase promastigotes of L. infantum following standard differentiation protocols. The cultures were maintained under controlled conditions and monitored daily by optical microscopy. Morphological observations confirmed the transition from elongated promastigotes to rounded amastigote-like forms with internalized or absent flagella. […] Cultures were regularly examined for microbial contamination, and no evidence of bacterial or fungal contamination was detected during the differentiation or experimental periods. Axenic amastigotes were exposed to compounds LT-73 and LT-75 at concentrations corresponding to the IC50 and 2× IC50, previously determined for promastigotes based on leishmanicidal activity, for analysis by scanning (SEM) and transmission electron microscopy (TEM). […]
After this period, cells were washed with PBS (phosphate-buffered saline) and fixed in a solution containing 2.5% glutaraldehyde and 4% formaldehyde in 0.1 M phosphate buffer (pH 7.4) for 24 h at 4 °C. […] Sections were contrasted with 2% uranyl acetate for 30 min and 2.5% lead citrate for 10 min, then analyzed using a Tecnai G2 Spirit TEM (FEI). […]
as §1

J774.A1 macrophages = test system: J774.A1 macrophages; design: method as in PMID 33590474; conditions: highest concentration tested 75 µM, previously determined in collaboration with Jacob et al., ref [20]; cited from earlier work
[3] = test system: Leishmania infantum promastigote forms (MHOM/BR/BH46); test: In vitro leishmanicidal activity against promastigotes (Neubauer chamber counting); format: cell-based; conditions: for SI (CC50/IC50): CC50 J774 macrophages / IC50 promastigotes; for IC50 / inhibition at 20 µM: Leishmania infantum; for IC50: 72 h, L. infantum promastigotes, linear regression; for inhibition at 20 µM: lowest concentration tested in the promastigote series (20–400 µM)
Method: For this study, the Leishmania infantum strain MHOM/BR/BH46 was used. It was maintained by cryopreservation in liquid nitrogen, using a preservation solution containing 10% dimethyl sulfoxide (DMSO) and 90% fetal bovine serum (FBS). For the experiments, the strain was reactivated and maintained in continuous culture in modified Schneider’s Drosophila medium, supplemented with 10% heat-inactivated fetal bovine serum (FBS), at a temperature of 26 °C, with subcultures performed every 72 h. The promastigote form was used for the in vitro assays, with growth observed and monitored through parasite counting using a Neubauer chamber (iNCYTO CChip DHC-N01, Cheonan-Si, Republic of Korea).
The in vitro leishmanicidal activity of compounds LT-70, LT-73, LT-75, LT-89, and amphotericin B was determined as described by Aliança et al., with adaptations. Promastigote forms of L. infantum (MHOM/BR/BH46) were maintained in Schneider’s medium supplemented with 10% fetal bovine serum (FBS), incubated at 26 °C. For experiments, parasites were subcultured and grown for 72 h until reaching stationary phase. Subsequently, they were adjusted to a concentration of 1 × 10^6 parasites/mL. Cultures were then incubated in the presence of the tested compounds (20–400 µM) and Amphotericin B was tested from 0.01 to 1.0 µM in preliminary range-finding assays, confirming an IC50 of 0.04 µM, both prepared in DMSO (final DMSO concentration < 1%), as well as a control containing only the diluent. Analyses were performed in technical triplicate and biological duplicate. Cultures were maintained at 26 °C for 72 h, with daily parasite counts performed using a Neubauer chamber. The median inhibitory concentration (IC50) was determined after 72 h by linear regression using SPSS 25.0 software for Mac. All assays were performed in 24-well flat-bottom plates (2 mL final volume per well), with parasite inoculum verified by Neubauer counting chamber. The compounds LT-73 and LT-75 were selected based on their best leishmanicidal performance and respective selectivity index (SI), calculated as the ratio between the cytotoxic concentration for 50% of host cells (CC50) and the IC50 obtained for parasites. […] IC50 and CC50 values were obtained by linear regression using […]. This method has been validated in our previous thiosemicarbazone publications. Each assay was conducted in triplicate across two independent biological experiments performed on separate days to ensure reproducibility and minimize batch effects. MTT was selected for consistency with the validated thiosemicarbazone protocol by Jacob et al., ensuring methodological coherence with prior data.

In the case of C[C@@H]1[C@H](O)[C@@H](C)/C=C/C=C/C=C/C=C/C=C/C=C/C=C/[C@H](O[C@@H]2O[C@H](C)[C@@H](O)[C@H](N)[C@@H]2O)C[C@@H]2O[C@](O)(C[C@@H](O)C[C@@H](O)[C@H](O)CC[C@@H](O)C[C@@H](O)CC(=O)O[C@H]1C)C[C@H](O)[C@H]2C(=O)O [Amphotericin B, reference compound], the TEM ultrastructural alterations [1] is given as “membrane rupture, chromatin condensation, and mitochondrial swelling”, the TEM ultrastructural alterations [2] is given as “plasma membrane rupture, alterations in the kinetoplast, and mitochondrial swelling” and the CC50 (J774.A1 macrophages) is given as 14 ± 0.3 µM. The “SI (CC50/IC50)” value [3] was 350, the IC50 [3] was 0.04 µM and the inhibition at 20 µM [3] was 100%.

For S=C(N/N=C/c1c[nH]c2ncccc12)Nc1ccccc1 [LT-73], the TEM ultrastructural alterations [1] is given as “disorganization of the plasma membrane, mitochondrial swelling, chromatin condensation, and the presence of numerous vacuoles”, the TEM ultrastructural alterations [2] is given as “significant alterations in the plasma membrane and flagellar pocket, chromatin condensation, mitochondrial swelling, and an increased number of intracellular vacuoles” and the CC50 (J774.A1 macrophages) is given as > 75 µM. The “SI (CC50/IC50)” value [3] was >5.8, the IC50 [3] was 10 to 14 µM and the inhibition at 20 µM [3] was 100%.

In the case of N#Cc1ccc2[nH]cc(/C=N/NC(=S)Nc3ccc(Cl)cc3)c2c1 [LT-75], the TEM ultrastructural alterations [1] is given as “extensive damage to the plasma membrane and cytoskeleton”, the TEM ultrastructural alterations [2] is given as “severe damage to the plasma membrane and cytoskeleton” and the CC50 (J774.A1 macrophages) is given as > 75 µM. For the same molecule, the “SI (CC50/IC50)” value [3] was >7.1, the IC50 [3] was 10 to 14 µM and the inhibition at 20 µM [3] was 100%.
